Key:
Experiment in all cases: relative viability (nuclei count vs DMSO), 5 days (fraction); higher = more cells survive
[1] = tested on: A549
Outline: (§1)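 Five library-drug doses in √10 steps were combined with a fixed anchor-drug dose, or a single drug was given alone, by pin tool to lung cancer cell lines in 1536-well plates the day after seeding. Nuclei were stained and counted after 5 days. Relative viability is the nuclei count in treated wells over that in vehicle wells, taken as the median of duplicate plates.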

[2] = tested on: Calu-6
Outline: as §1

[3] = tested on: EBC-1
Outline: as §1

[4] = tested on: HCC-78
Outline: as §1

[5] = tested on: IA-LM
Outline: as §1

[6] = tested on: NCI-H1299
Outline: as §1

[7] = tested on: NCI-H1703
Outline: as §1

[8] = tested on: NCI-H2009
Outline: as §1

[9] = tested on: NCI-H460
Outline: as §1

[10] = tested on: NCI-H661
Outline: as §1

O=c1cc(-c2cccc3c2Sc2ccccc2S3)oc(N2CCOCC2)c1 + CC1(C)CCC(c2ccc(Cl)cc2)=C(CN2CCN(c3ccc(C(=O)NS(=O)(=O)c4ccc(N[C@H](CCN5CCOCC5)CSc5ccccc5)c(S(=O)(=O)C(F)(F)F)c4)cc3)CC2)C1 [Navitoclax] (partner 0.5 µM)
relative viability ([1]; first compound 0.08 µM): 1.14
relative viability ([1]; first compound 0.253 µM): 1.51
relative viability ([1]; first compound 0.8 µM): 1.47
relative viability ([1]; first compound 2.53 µM): 1.13
relative viability ([1]; first compound 8 µM): 1.37
relative viability ([2]; first compound 0.08 µM): 0.818
relative viability ([2]; first compound 0.253 µM): 0.765
relative viability ([2]; first compound 0.8 µM): 0.968
relative viability ([2]; first compound 2.53 µM): 0.725
relative viability ([2]; first compound 8 µM): 0.858
relative viability ([3]; first compound 0.08 µM): 0.401
relative viability ([3]; first compound 0.253 µM): 0.376
relative viability ([3]; first compound 0.8 µM): 0.401
relative viability ([3]; first compound 2.53 µM): 0.362
relative viability ([3]; first compound 8 µM): 0.335
relative viability ([4]; first compound 0.08 µM): 0.806
relative viability ([4]; first compound 0.253 µM): 0.978
relative viability ([4]; first compound 0.8 µM): 0.767
relative viability ([4]; first compound 2.53 µM): 0.779
relative viability ([4]; first compound 8 µM): 0.816
relative viability ([5]; first compound 0.08 µM): 0.847
relative viability ([5]; first compound 0.253 µM): 1.06
relative viability ([5]; first compound 0.8 µM): 0.815
relative viability ([5]; first compound 2.53 µM): 0.856
relative viability ([5]; first compound 8 µM): 0.963
relative viability ([6]; first compound 0.08 µM): 1.08
relative viability ([6]; first compound 0.253 µM): 1.08
relative viability ([6]; first compound 0.8 µM): 1.04
relative viability ([6]; first compound 2.53 µM): 1.04
relative viability ([6]; first compound 8 µM): 1.04
relative viability ([7]; first compound 0.253 µM): 1.22
relative viability ([7]; first compound 0.8 µM): 1.35
relative viability ([7]; first compound 2.53 µM): 1.05
relative viability ([7]; first compound 8 µM): 1.05
relative viability ([8]; first compound 0.08 µM): 1.22
relative viability ([8]; first compound 0.253 µM): 1.2
relative viability ([8]; first compound 0.8 µM): 1.21
relative viability ([8]; first compound 2.53 µM): 1.05
relative viability ([8]; first compound 8 µM): 1.11
relative viability ([9]; first compound 0.08 µM): 1.24
relative viability ([9]; first compound 0.8 µM): 1.42
relative viability ([9]; first compound 2.53 µM): 1.23

O=c1cc(-c2cccc3c2Sc2ccccc2S3)oc(N2CCOCC2)c1 + CC(C)C[C@H](NC(=O)[C@H](Cc1ccccc1)NC(=O)c1cnccn1)B(O)O [Bortezomib] (partner 0.002 µM)
relative viability ([2]; first compound 0.08 µM): 0.91
relative viability ([2]; first compound 0.253 µM): 1.02
relative viability ([2]; first compound 0.8 µM): 1.01
relative viability ([2]; first compound 2.53 µM): 0.974
relative viability ([2]; first compound 8 µM): 0.976
relative viability ([3]; first compound 0.08 µM): 0.602
relative viability ([3]; first compound 0.253 µM): 0.535
relative viability ([3]; first compound 0.8 µM): 0.546
relative viability ([3]; first compound 2.53 µM): 0.424
relative viability ([3]; first compound 8 µM): 0.448
relative viability ([4]; first compound 0.08 µM): 0.461
relative viability ([4]; first compound 0.253 µM): 0.48
relative viability ([4]; first compound 0.8 µM): 0.355
relative viability ([4]; first compound 2.53 µM): 0.482
relative viability ([4]; first compound 8 µM): 0.525
relative viability ([5]; first compound 0.08 µM): 0.833
relative viability ([5]; first compound 0.253 µM): 0.946
relative viability ([5]; first compound 0.8 µM): 0.799
relative viability ([5]; first compound 2.53 µM): 0.949
relative viability ([5]; first compound 8 µM): 0.905
relative viability ([6]; first compound 0.08 µM): 1.02
relative viability ([6]; first compound 0.253 µM): 1.02
relative viability ([6]; first compound 0.8 µM): 1.05
relative viability ([6]; first compound 2.53 µM): 0.997
relative viability ([6]; first compound 8 µM): 1.01
relative viability ([7]; first compound 0.253 µM): 0.356
relative viability ([7]; first compound 0.8 µM): 0.384
relative viability ([7]; first compound 2.53 µM): 0.346
relative viability ([7]; first compound 8 µM): 0.285
relative viability ([8]; first compound 0.08 µM): 0.936
relative viability ([8]; first compound 0.253 µM): 1.1
relative viability ([8]; first compound 0.8 µM): 0.952
relative viability ([8]; first compound 2.53 µM): 0.871
relative viability ([8]; first compound 8 µM): 0.795
relative viability ([9]; first compound 0.08 µM): 1.36
relative viability ([9]; first compound 0.8 µM): 1.12
relative viability ([9]; first compound 2.53 µM): 1.02
relative viability ([9]; first compound 8 µM): 1.87
relative viability ([10]; first compound 0.08 µM): 0.808
relative viability ([10]; first compound 0.253 µM): 0.935
relative viability ([10]; first compound 0.8 µM): 0.837
relative viability ([10]; first compound 2.53 µM): 0.798
relative viability ([10]; first compound 8 µM): 0.912

Reference: the supplement of paper PMC10307832
